One compound from patent publication US9988371B2, “Benzimidazole analogues and related methods” (The Arizona Board of Regents, on Behalf of the University …, priority 2014, dated 2018) can be followed below.

Each structure is given as a SMILES string.

The subject of data set [1] is RET/C634Y transformed NIH3T3 fibroblasts. Nature of the data set: NIH3T3 RET/C634Y tumors in nude mice. The following applies: 1.0, 3.0 or 10 mg/kg daily, oral gavage. The class given is in vivo, BALB/c nu/nu mice. The source says:
FIG. 8: Anti-tumorigenic activity of Pz-1 in nude mice implanted with RET/C634Y or HRAS(G12V) transformed NIH3T3 fibroblasts. […] Average tumor volume (±SD: standard deviations) is reported. NIH3T3 RET/C634Y (200,000 cells) or NIH3T3 HRAS/G12V (50,000 cells) were inoculated subcutaneously into dorsal portion (both sides) of 6-week-old female BALB/c nu/nu mice (n. 31 mice/cell line) (Jackson Laboratories, Bar Harbor, Me.). After 4 days, before tumors had appeared, animals were randomly assigned to receive Pz-1 (1.0, 3.0 or 10 mg/kg daily) (23 mice/cell line: 8 mice/group for 1.0 and 3.0 mg/kg daily doses and 7 mice for 10 dose mg/kg daily) or vehicle control (8 mice) by oral gavage. Tumor diameters were measured with calipers every 1-2 days. Tumor volumes (V) were calculated by the rotational ellipsoid formula and reported as average volumes±standard deviations. […]
TT cells (7.5×10^6/mouse) were inoculated subcutaneously into dorsal portions (both sides) of 39 SCID mice (Jackson Laboratories, Bar Harbor, Me.). […] Tumor diameters were measured with callipers every week. Tumor volumes (V) were calculated by the rotational ellipsoid formula: V=A×B^2/2 (A=axial diameter; B=rotational diameter) and reported as average volumes±standard deviations. […] Anti-tumorigenic activity of Pz-1 was also assessed in nude mice implanted with RET/C634Y or HRAS(G12V) transformed NIH3T3 fibroblasts. […]

Data set [2] can be described thus: week-long toxicology study in mice. The class given is in vivo. On the procedure:
For PK studies of Pz-1 in animals, a solution formulation for oral administration was created in 500 μL of polysorbate 80, 500 μL of EtOH, and 1.0 mL of pH 2 buffer. For the toxicity studies, a suspension formulation was developed in tween 20 (20%) and xanthan gum (0.125%).
Similarly, the toxicity markers including phosphorus, creatinine, total bilirubin, GGT, ALP, glucose, total protein, albumin, globulin, calcium, cholesterol, and BUN were not impacted at any dose. […] At the highest dose, the concentration of ALT was slightly above the normal ALT level of 80 U/L, but below the toxicity threshold of 200 U/L. ALT levels can easily be monitored and can serve as a reversible toxicity marker in the clinical setting.

The target in a further data set is T1, RET/C634Y (Homo sapiens, UniProt P07949, C634Y).
T1 construct: expressed in transfected cells; host or cells: NIH3T3 fibroblasts, grown as tumours in BALB/c nu/nu mice
Kind of data set: In vivo target inhibition, RET phosphorylation and signaling in RET/C634Y-induced tumors. The following applies: 48 hr, 1.0 or 3.0 mg/kg daily. Further details: species or system nude mice. As to the method: FIG. 9: Photographs of blots showing effects of Pz-1 on cellular phosphorylation events in tumors induced in nude mice (from FIG. 8) by injection of NIH3T3 fibroblasts transformed by RET/C634Y or HRAS/G12V. […] Some of the vehicle-treated tumors, at the end of the tumor growth experiment described in FIG. 8, were treated for 48 hr with different doses of Pz-1 (TR) or left untreated (NT). At the end of the treatment, 50 μg of tumor protein lysates were subjected to immunoblotting with anti-phospho-Y1062 (αp1062) and anti-phospho-905 (αpY905) RET antibodies, anti-phospho-MAPK (αpMAPK, T302/Y304), anti-phospho-SHC (αpSHC, Y317), anti-phospho-p70S6K (αpp70S6K, T389), anti-phospho-S6RP (αpS6RP, S235/S236), and anti-phospho-VEGFR2 (αpVEGFR2 pY1175) antibodies. The blots were normalized using anti-RET (αRET), anti-SHC (αSHC), anti-MAPK (αMAPK), anti-p70S6K (αp70S6K), anti-S6RP (αS6RP) or anti-VEGFR2 (αVEGFR2) antibodies.
Some of the vehicle-treated tumors, at the end of the tumor growth experiment reported in FIG. 8, were treated for 48 hr with different doses of Pz-1 (1.0 or 3.0 mg/kg daily) or left untreated. […]

T1 sequence (P07949 29-1072 isoform P07949-2 C634Y limits assumed): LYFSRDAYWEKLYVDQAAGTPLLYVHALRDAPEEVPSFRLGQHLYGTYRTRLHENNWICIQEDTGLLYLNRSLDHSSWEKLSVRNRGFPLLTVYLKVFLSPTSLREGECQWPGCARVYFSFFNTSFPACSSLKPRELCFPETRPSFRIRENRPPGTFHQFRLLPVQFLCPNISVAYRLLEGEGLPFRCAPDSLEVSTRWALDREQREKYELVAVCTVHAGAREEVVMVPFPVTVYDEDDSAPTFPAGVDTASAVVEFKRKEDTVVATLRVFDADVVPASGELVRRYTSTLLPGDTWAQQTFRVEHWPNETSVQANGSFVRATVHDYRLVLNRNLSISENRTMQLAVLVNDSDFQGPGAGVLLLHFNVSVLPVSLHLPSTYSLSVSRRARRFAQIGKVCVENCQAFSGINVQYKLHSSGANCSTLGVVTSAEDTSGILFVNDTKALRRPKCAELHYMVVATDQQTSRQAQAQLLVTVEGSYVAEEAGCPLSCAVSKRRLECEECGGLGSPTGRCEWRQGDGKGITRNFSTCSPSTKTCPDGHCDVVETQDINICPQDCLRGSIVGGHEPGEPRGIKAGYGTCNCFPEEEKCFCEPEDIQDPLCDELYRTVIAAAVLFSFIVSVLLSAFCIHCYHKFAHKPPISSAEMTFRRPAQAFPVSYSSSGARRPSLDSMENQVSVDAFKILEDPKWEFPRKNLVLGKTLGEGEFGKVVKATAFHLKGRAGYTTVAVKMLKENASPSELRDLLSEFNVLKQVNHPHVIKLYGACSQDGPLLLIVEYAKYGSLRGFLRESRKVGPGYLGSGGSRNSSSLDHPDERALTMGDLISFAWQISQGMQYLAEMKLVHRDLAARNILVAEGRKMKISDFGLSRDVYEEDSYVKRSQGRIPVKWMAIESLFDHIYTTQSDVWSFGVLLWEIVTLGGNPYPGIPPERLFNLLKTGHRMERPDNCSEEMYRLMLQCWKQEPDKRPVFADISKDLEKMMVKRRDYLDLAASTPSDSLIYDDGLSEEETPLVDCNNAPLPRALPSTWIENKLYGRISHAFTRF

`Cn1cc(-c2ccc3c(c2)ncn3-c2ccc(CC(=O)Nc3cc(C(C)(C)C)on3)cc2)cn1` [Pz-1, N-(5-(tert-butyl)isoxazol-3-yl)-2-(4-(5-(1-methyl-1H-pyrazol-4-yl)-1H-benzo[d]imidazol-1-yl)phenyl)acetamide]: the “formation of tumors induced by RET cells” value in data set [1] is “totally prevented formation of tumors”. Also, the ALT in blood is reported as 22 U/L in data set [2] (10 mg/kg), 51 U/L in data set [2] (30 mg/kg) and 96 U/L in data set [2] (100 mg/kg). Further, the “toxicity markers (phosphorus, creatinine, total bilirubin, GGT, ALP, glucose, total protein, albumin, globulin, calcium, cholesterol, BUN)” value in data set [2] (any dose) was “not impacted”. Also, in data set [2] (even at 100 mg/kg), the “organ pathological analysis in heart, kidney, and liver” value is listed as “did not show adverse effects”. Also, in data set [2] (one week, daily dose escalation from 10 mg/kg to 100 mg/kg, suspension formulation), the toxicity entry is on record as “no significant toxicity”. In addition, on RET/C634Y, the “RET phosphorylation and intracellular signaling (SHC, MAPK, p70S6K and S6RP) in tumors” value is “inhibited”.
